In US20260077051A1, “COMPOUNDS FOR THE DEGRADATION OF EGFR KINASE” (BeOne Medicines I GmbH, priority 2023, published 2026) one finds DC50 and Dmax data, which are given here for nine molecules.

Assay [1] concerns the target T1, EGFR L858R (BaF3-L858R cells) (Homo sapiens, UniProt P00533, L858R).
T1 construct: host or cells: BaF3
The experiment in a line: EGFR degradation in BaF3-L858R cells (HTRF assay). The format is cell-based. Particulars: 16 h treatment; for DC50: IC50(DC50) of EGFR degradation; for Dmax: maximum percentage of inhibition (degradation). Summed up: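 BaF3-L858R cells were exposed for 16 h at 37° C to 8 doses, 5-fold dilutions starting at 10 uM final, in 0.1% DMSO medium. Lysates were incubated overnight with HTRF antibodies and read at 665/620 nm. Degradation was taken relative to DMSO control, and DC50 and Dmax came from a four-parameter fit.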
Background: Time-resolved FRET reads energy transfer from a long-lived donor to a nearby acceptor.

The target in assay [2] is T2, EGFR-L858R/C797S (H1975-clone #8 cells) (Homo sapiens, UniProt P00533, C797S/L858R).
T2 construct: expressed in transfected cells; host or cells: H1975 (lentiviral transduction, endogenous EGFR knocked out, single clone #8)
The assay is described as follows: EGFR degradation in H1975-clone#8 (L858R/C797S) cells (HTRF assay). The format is cell-based. Particulars: 16 h treatment; for DC50: IC50(DC50) of EGFR degradation; for Dmax: maximum percentage of inhibition (degradation). Summed up: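 H1975 cells engineered to carry only homozygous exogenous EGFR L858R/C797S (clone #8) treated 16 h at 37 °C with compound, 8 doses from 10 uM in 5-fold steps, 0.1% DMSO. Remaining EGFR in lysates measured by HTRF; degradation percentage relative to DMSO control, DC50 and Dmax from 4-parameter fit.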

T2 sequence (P00533 25-1210 C797S/L858R): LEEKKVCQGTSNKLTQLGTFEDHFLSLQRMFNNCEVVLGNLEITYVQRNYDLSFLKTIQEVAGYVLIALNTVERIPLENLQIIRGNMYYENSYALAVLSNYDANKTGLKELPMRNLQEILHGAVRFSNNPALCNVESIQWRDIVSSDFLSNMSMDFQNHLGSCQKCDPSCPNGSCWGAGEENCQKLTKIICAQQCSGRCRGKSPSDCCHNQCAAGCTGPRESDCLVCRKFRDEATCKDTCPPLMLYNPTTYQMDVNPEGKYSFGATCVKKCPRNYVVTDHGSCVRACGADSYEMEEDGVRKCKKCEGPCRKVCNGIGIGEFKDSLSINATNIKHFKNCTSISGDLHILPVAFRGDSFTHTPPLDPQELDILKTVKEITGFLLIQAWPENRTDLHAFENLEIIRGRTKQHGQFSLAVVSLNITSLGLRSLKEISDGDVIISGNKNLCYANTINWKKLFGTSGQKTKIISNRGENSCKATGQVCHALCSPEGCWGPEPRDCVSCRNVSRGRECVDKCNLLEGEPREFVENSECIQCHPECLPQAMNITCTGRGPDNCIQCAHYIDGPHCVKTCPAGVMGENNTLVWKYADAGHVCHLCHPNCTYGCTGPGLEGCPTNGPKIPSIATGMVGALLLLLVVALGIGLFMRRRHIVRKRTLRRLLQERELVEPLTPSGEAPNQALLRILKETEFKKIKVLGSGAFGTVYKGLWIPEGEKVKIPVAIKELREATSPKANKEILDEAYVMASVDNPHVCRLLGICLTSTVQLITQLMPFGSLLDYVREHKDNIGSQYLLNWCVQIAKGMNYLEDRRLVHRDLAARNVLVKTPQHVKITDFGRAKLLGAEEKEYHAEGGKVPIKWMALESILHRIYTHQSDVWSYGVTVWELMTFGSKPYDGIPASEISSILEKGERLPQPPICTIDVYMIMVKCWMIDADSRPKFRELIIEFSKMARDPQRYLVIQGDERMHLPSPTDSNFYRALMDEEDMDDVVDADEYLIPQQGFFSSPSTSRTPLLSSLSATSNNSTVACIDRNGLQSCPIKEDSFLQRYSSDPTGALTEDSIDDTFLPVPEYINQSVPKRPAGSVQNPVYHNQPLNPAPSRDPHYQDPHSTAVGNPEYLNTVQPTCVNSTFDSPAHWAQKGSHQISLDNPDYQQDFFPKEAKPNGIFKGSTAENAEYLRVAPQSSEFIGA
T1 sequence (P00533 25-1210 L858R): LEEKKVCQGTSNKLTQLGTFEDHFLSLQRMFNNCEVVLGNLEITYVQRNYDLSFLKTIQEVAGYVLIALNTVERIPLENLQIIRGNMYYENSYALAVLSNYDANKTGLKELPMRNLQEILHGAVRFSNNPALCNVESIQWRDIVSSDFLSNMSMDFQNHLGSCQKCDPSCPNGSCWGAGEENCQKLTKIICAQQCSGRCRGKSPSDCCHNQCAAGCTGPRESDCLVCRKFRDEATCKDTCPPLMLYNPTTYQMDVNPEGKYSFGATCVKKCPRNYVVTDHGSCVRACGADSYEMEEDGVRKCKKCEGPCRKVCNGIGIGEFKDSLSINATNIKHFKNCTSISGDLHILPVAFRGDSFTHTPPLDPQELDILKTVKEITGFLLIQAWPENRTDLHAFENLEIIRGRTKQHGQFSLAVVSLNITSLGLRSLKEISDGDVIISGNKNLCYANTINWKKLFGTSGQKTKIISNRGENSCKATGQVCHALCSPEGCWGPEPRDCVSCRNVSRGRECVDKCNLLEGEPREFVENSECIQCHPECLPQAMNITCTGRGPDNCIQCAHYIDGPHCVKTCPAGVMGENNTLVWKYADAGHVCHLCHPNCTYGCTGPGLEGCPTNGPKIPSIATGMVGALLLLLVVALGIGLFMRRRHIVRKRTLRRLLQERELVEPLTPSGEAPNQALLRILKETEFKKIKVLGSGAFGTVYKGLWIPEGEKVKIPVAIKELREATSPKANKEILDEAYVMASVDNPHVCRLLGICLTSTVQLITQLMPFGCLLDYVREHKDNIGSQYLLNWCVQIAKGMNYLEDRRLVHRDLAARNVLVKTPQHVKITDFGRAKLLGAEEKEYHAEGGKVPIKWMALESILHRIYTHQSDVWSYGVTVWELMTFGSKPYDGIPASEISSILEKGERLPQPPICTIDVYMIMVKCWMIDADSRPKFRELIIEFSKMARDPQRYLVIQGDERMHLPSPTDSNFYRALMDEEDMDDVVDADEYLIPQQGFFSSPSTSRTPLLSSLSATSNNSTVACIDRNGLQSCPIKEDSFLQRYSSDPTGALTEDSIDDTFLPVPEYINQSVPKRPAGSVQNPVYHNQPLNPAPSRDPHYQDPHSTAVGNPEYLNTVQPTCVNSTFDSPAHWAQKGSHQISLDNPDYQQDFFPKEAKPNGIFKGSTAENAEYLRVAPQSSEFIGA

For `Cc1cc2cc(n1)-c1cnn(C)c1OCC[C@]1(C)C[C@H]1CN1/C(=N/C2=O)Nc2ccc(N3CCN([C@@H]4CCN(c5cc(F)c(C6CCC(=O)NC6=O)nc5C)C[C@@H]4F)CC3)cc21` (stereo partly drawn) [Example 43, 3-(3-fluoro-5-((3S,4R)-3-fluoro-4-(4-((7^1R,7^2S,E)-1^1,2^6,7^2-trimethyl-3-oxo-5^2,5^3-dihydro-1^1H,5^1H-10-oxa-4-aza-5 (2,1)-benzo[d]imidazola-2 (2,4)-pyridina-1 (4,5)-pyrazola-7 (1,2)-cyclopropanacyclodecaphane-5^6-yl)piperazin-1-yl)piperidin-1-yl)-6-methylpyridin-2-yl)piperidine-2,6-dione], in assay [1], the DC50 (usually the concentration giving 50% degradation) turned out to be 1.74 nM and the Dmax (commonly the largest share of the target that was removed) is 86.2%. In assay [2], this molecule yielded a DC50 of 2.81 nM and a Dmax of 88.8%.
With `CCc1nc(C2CCC(=O)NC2=O)ccc1N1CC[C@@H](N2CCN(c3ccc4c(c3)N3C[C@H]5C[C@@H]5CCOc5c(cnn5C)-c5cc(cc(C)n5)C(=O)/N=C/3N4)CC2)[C@@H](F)C1` (stereo partly drawn) [Example 32, 3-(5-((3S,4R)-4-(4-((7^1S,7^2R,E)-1^1,2^6-dimethyl-3-oxo-5^2,5^3-dihydro-1^1H,5^1H-10-oxa-4-aza-5 (2,1)-benzo[d]imidazola-2 (2,4)-pyridina-1 (4,5)-pyrazola-7 (1,2)-cyclopropanacyclodecaphane-5^6-yl)piperazin-1-yl)-3-fluoropiperidin-1-yl)-6-ethylpyridin-2-yl)piperidine-2,6-dione], in assay [1], the DC50 came to 6.44 nM and the Dmax came out at 84.5%. In assay [2], this molecule had a DC50 of 10.5 nM and a Dmax of 60.9%.
In the same order, the values of `Cc1cc2cc(n1)-c1cnn(C)c1OCC[C@]1(C)C[C@H]1CN1/C(=N/C2=O)Nc2ccc(N3CCN([C@H]4CCN(c5cc(F)c(C6CCC(=O)NC6=O)nc5C)C[C@H]4F)CC3)cc21` (stereo partly drawn) [Example 61, 3-(3-fluoro-5-((3R,4S)-3-fluoro-4-(4-((7^1R,7^2S,E)-1^1,2^6,7^2-trimethyl-3-oxo-5^2,5^3-dihydro-1^1H,5^1H-10-oxa-4-aza-5 (2,1)-benzo[d]imidazola-2 (2,4)-pyridina-1 (4,5)-pyrazola-7 (1,2)-cyclopropanacyclodecaphane-56-yl)piperazin-1-yl)piperidin-1-yl)-6-methylpyridin-2-yl)piperidine-2,6-dione] are 0.99 nM, 91.8%, 1.29 nM and 80.8%.
In assay [1], `Cc1cc2cc(n1)-c1cnn(C)c1OCC[C@H]1C[C@@H]1CN1/C(=N/C2=O)Nc2ccc(N3CCN(C4CN(C5CCN(c6ccc(C7CCC(=O)NC7=O)nc6C)CC5)C4)CC3)cc21` (stereo partly drawn) [Example 20, 3-(5-(4-(3-(4-((7^1S,7^2R,E)-1^1,2^6-dimethyl-3-oxo-5^2,5^3-dihydro-1^1H,5^1H-10-oxa-4-aza-5 (2,1)-benzo[d]imidazola-2 (2,4)-pyridina-1 (4,5)-pyrazola-7 (1,2)-cyclopropanacyclodecaphane-5^6-yl)piperazin-1-yl)azetidin-1-yl)piperidin-1-yl)-6-methylpyridin-2-yl)piperidine-2,6-dione] displayed a DC50 of 12.4 nM and a Dmax of 86.8%. In assay [2], this molecule came in with a DC50 of 0.603 nM and a Dmax of 59.1%.
In the same order, the values of `Cc1cc2cc(n1)-c1cnn(C)c1OCC[C@H]1C[C@@H]1CN1/C(=N/C2=O)Nc2ccc(N3CCN([C@@H]4CCN(c5cnc(C6CCC(=O)NC6=O)cc5C)C[C@@H]4F)CC3)cc21` (stereo partly drawn) [Example 12, 3-(5-((3S,4R)-4-(4-((7^1S,7^2R,E)-1^1,2^6-dimethyl-3-oxo-5^2,5^3-dihydro-1^1H,5^1H-10-oxa-4-aza-5 (2,1)-benzo[d]imidazola-2 (2,4)-pyridina-1 (4,5)-pyrazola-7 (1,2)-cyclopropanacyclodecaphane-5^6-yl)piperazin-1-yl)-3-fluoropiperidin-1-yl)-4-methylpyridin-2-yl)piperidine-2,6-dione] are 18.4 nM, 73.6%, 16 nM and 54.4%.
Turning to `Cc1cc2cc(n1)-c1cnn(C)c1OCC[C@H]1C[C@@H]1CN1/C(=N/C2=O)Nc2ccc(N3CCN(CCc4c(C)cc(C5CCC(=O)NC5=O)nc4C)CC3)cc21` (stereo partly drawn) [Example 21, 3-(5-(2-(4-((7^1S,7^2R,E)-1^1,2^6-dimethyl-3-oxo-5^2,5^3-dihydro-1^1H,5^1H-10-oxa-4-aza-5 (2,1)-benzo[d]imidazola-2 (2,4)-pyridina-1 (4,5)-pyrazola-7 (1,2)-cyclopropanacyclodecaphane-5^6-yl)piperazin-1-yl)ethyl)-4,6-dimethylpyridin-2-yl)piperidine-2,6-dione], in assay [1], it took 1.65 nM to reach half-maximal degradation (DC50) and the Dmax came to 82.8%. Besides, in assay [2], the DC50 was 19.3 nM and the Dmax was found to be 40.2%.
In assay [1], `Cc1cc2cc(n1)-c1cnn(C)c1OCC[C@H]1C[C@@H]1CN1/C(=N/C2=O)Nc2ccc(N3CCN([C@H]4CCN(c5cnc(C6CCC(=O)NC6=O)cc5C)C[C@H]4F)CC3)cc21` (stereo partly drawn) [Example 11, 3-(5-((3R,4S)-4-(4-((7^1S,7^2R,E)-1^1,2^6-dimethyl-3-oxo-5^2,5^3-dihydro-1^1H,5^1H-10-oxa-4-aza-5 (2,1)-benzo[d]imidazola-2 (2,4)-pyridina-1 (4,5)-pyrazola-7 (1,2)-cyclopropanacyclodecaphane-5^6-yl)piperazin-1-yl)-3-fluoropiperidin-1-yl)-4-methylpyridin-2-yl)piperidine-2,6-dione] showed a DC50 of 7.62 nM and a Dmax of 71.2%. In assay [2], this molecule had a DC50 of 1.44 nM and a Dmax of 51.8%.
In the same order, the values of `CCc1nc(C2CCC(=O)NC2=O)ccc1N1CCC(N2CCN(c3ccc4c(c3)N3C[C@H]5C[C@@H]5CCOc5c(cnn5C)-c5cc(cc(C)n5)C(=O)/N=C/3N4)CC2)CC1` (stereo partly drawn) [Example 14, 3-(5-(4-(4-4((7^1S,7^2R,E)-1^1,2^6-dimethyl-3-oxo-5^2,5^3-dihydro-1^1H,5^1H-10-oxa-4-aza-5 (2,1)-benzo[d]imidazola-2 (2,4)-pyridina-1 (4,5)-pyrazola-7 (1,2)-cyclopropanacyclodecaphane-5^6-yl)piperazin-1-yl)piperidin-1-yl)-6-ethylpyridin-2-yl)piperidine-2,6-dione] are 9.37 nM, 84.4%, 5.8 nM and 51.4%.
Consider `Cc1cc2cc(n1)-c1cnn(C)c1OCC[C@]1(C)C[C@H]1CN1/C(=N/C2=O)Nc2ccc(N3CCN([C@H]4CCN(c5ccc(C6CCC(=O)NC6=O)nc5C)C[C@H]4F)CC3)cc21` (stereo partly drawn) [Example 62, 3-(5-((3R,4S)-3-fluoro-4-(4-((7^1R,7^2S,E)-1^1,2^6,7^2-trimethyl-3-oxo-5^2,5^3-dihydro-1^1H,5^1H-10-oxa-4-aza-5 (2,1)-benzo[d]imidazola-2 (2,4)-pyridina-1 (4,5)-pyrazola-7 (1,2)-cyclopropanacyclodecaphane-5^6-yl)piperazin-1-yl)piperidin-1-yl)-6-methylpyridin-2-yl)piperidine-2,6-dione], for which the 50% degradation concentration (DC50) in assay [1] was determined as 0.69 nM; in assay [2], 0.612 nM. For the same molecule, the Dmax came to 93.8% in assay [1] and 76.8% in assay [2].
